Earlier results as cited in the CATMoS acute toxicity set (Mansouri et al. 2021).
Several values for one entry are separate records, joined by “and”; a condition that tells them apart may be missing. Identical values can stand only once.

Experiment: rat acute oral toxicity
Details: in vivo

In order of falling LD50:
1. CSCC[C@H](N)C(=O)O  36000 mg/kg
2. CCCCC(CC)C(=O)OCCOCCOCCOC(=O)C(CC)CCCC (configuration not stated)  31000 mg/kg
3. O=C(NNC1OC(C(=O)O)C(O)C(O)C1O)c1ccncc1 (configuration not stated)  20300 mg/kg
4. CCCCCCCCCCCCCCCCCCP(=O)(OC)OC  15400 mg/kg
5. Nc1c(/N=N/c2ccc(-c3ccc(/N=N/c4cc(S(=O)(=O)O)c5ccccc5c4N)cc3)cc2)cc(S(=O)(=O)O)c2ccccc12  15200 mg/kg
6. O=C(Cc1ccccc1)OCCc1ccccc1  15000 mg/kg
7. N#CCCOCCOCCO  13400 mg/kg
8. CC(C)COC(=O)C(C)C  12800 mg/kg
9. CCCCCCCCCCCC(=O)O  12000 mg/kg
10. Cc1ccc(S(=O)(=O)Oc2cc(S(=O)(=O)O)cc3cc(S(=O)(=O)O)cc(N)c23)cc1  11500 mg/kg
11. CCCCOC(=O)c1ccccc1C(=O)OCCOCCOC(=O)c1ccccc1C(=O)OCCCC  11000 mg/kg
12. COC1=C(OC)C(=O)C(CCCCCCCCCCO)=C(C)C1=O  10000 mg/kg
13. O=C1CCCCCCCC(=O)OCCO1  9200 mg/kg
14. CCCOC(=O)C1COc2ccccc2O1 (configuration not stated)  7450 mg/kg
15. COc1cc(-c2ccc(N=Nc3c(O)ccc4ccccc34)c(OC)c2)ccc1N=Nc1ccc2c(S(=O)O)cc(S(=O)(=O)O)c(N)c2c1  6700 mg/kg
16. O=C(O)c1ccccc1-c1ccccc1CO  6500 mg/kg
17. O=C(Cl)C(c1ccccc1)c1ccccc1  6330 mg/kg
18. COC(=O)c1cc([N+](=O)[O-])ccc1Cl  5360 mg/kg
19. COC(=O)CC(=O)OC  5330 mg/kg
20. CCC(C(=O)O)C1(O)CCCCC1 (configuration not stated)  4820 mg/kg
21. CCOC(=O)Cc1[nH]nc2ccc(Cl)cc12  4800 mg/kg
22. Cc1ccn(C(=O)NCCCCNC(=O)n2ccc(C)n2)n1  4600 mg/kg
23. CC(=O)OC1CCCCC1C(C)(C)C (configuration not stated)  4600 mg/kg
24. CC(C)(N=C=O)c1cccc(C(C)(C)N=C=O)c1  4600 mg/kg
25. CC=CC=CC=CC(C)=O  4300 mg/kg
26. CC1CC2OC2CC1COC(=O)CCCCC(=O)OCC1CC2OC2CC1C (configuration not stated)  4290 mg/kg
27. CC(C)(OOC(C)(C)c1ccccc1)c1ccccc1  4100 mg/kg
28. C/C(=C/CC[C@@]1(C)C2C[C@@H]3[C@H](C2)C31C)CO  3800 mg/kg
29. CCCCCCCCCC=CC(=O)OC(=O)C=CCCCCCCCCC  3800 mg/kg
30. CCCC(=O)CCC  3730 mg/kg
31. CS(=O)(=O)c1ccc(-c2cn3ccccc3n2)cc1  3710 mg/kg
32. CCCCCCCCCCCCCCCCC[N+](C)(C)C  3650 mg/kg
33. O=C(O)c1cccc2c(Cl)ccc(C(=O)O)c12  3500 mg/kg
34. CCC(=O)OCC=Cc1ccccc1  3400 mg/kg
35. CCC(CC)COCCOC(=O)CCCCC(=O)OCCOCC(CC)CC  3250 mg/kg
36. CC(=O)O  3250 mg/kg
37. CCCCOCCOCCCC  3250 mg/kg
38. CC(C)=CCC/C(C)=C/C#N  3100 mg/kg
39. NC(C(=O)O)c1ccccc1 (configuration not stated)  3030 mg/kg
40. CN(C)c1ccc(C(=N)c2ccc(N(C)C)cc2)cc1  3000 mg/kg
41. COC(=O)C1=C(C)NC(C)=C(C(=O)OC/C=C/c2ccccc2)C1c1cccc([N+](=O)[O-])c1 (configuration not stated)  2970 mg/kg
42. COc1nccnc1NS(=O)(=O)c1ccc(N)cc1  2740 mg/kg
43. O=C1c2ccccc2C(=O)N1SC1CCCCC1  2600 mg/kg
44. CCOC(=O)C1=CNC2CCCC(C)N2C1=O (configuration not stated)  2500 mg/kg
45. CNc1nc(NC(C)C)nc(OC)n1  2400 mg/kg
46. Nc1c(Cl)cc(Cl)cc1Cl  2400 mg/kg
47. CCCCCCCCCCNCCCCCCCC  2400 mg/kg
48. COc1ccccc1C1C(Cl)C(=O)N1c1ccccc1C(=O)O (configuration not stated)  2400 mg/kg
49. COc1cc2[nH]c3c(c2cc1OC)CCN1CC2C(C)OC=C(C(=O)OCCN(C)C)C2CC31 (configuration not stated)  2350 mg/kg
50. N#CCC(=O)c1ccc(N)cc1  2260 mg/kg
51. COc1ccc(C(=O)CCC(=O)O)c2c(C)c(C)oc12  2180 mg/kg
52. N#CCCC1(CCC#N)c2ccccc2-c2ccccc21  2180 mg/kg
53. O=C(O)CCC1(CCC(=O)O)c2ccccc2-c2ccccc21  2140 mg/kg
54. CC1=NN(c2ccccc2)C(=O)C1  1920 mg/kg
55. c1ccc(-c2nnn[nH]2)cc1  1900 mg/kg
56. Cc1ccccc1O  1860 mg/kg
57. CCCC=C1OC(=O)c2ccccc21  1850 mg/kg
58. CC(CN1C(=O)N(CC2CO2)C(C)(C)C1=O)OCC1CO1 (configuration not stated)  1800 mg/kg
59. COC(CNCc1ccccc1)c1cccc(C(F)(F)F)c1 (configuration not stated)  1720 mg/kg
60. C[C@H]1c2cccc(O)c2C(=O)C2=C(O)[C@]3(O)C(=O)C(C(N)=O)=C(O)[C@@H](N(C)C)[C@@H]3[C@@H](O)[C@@H]21  1700 mg/kg
61. Cc1ccc(N(C)C)cc1  1650 mg/kg
62. CCCCCCCc1cc(C)c(O)c(C)c1  1600 mg/kg
63. COc1ccc(OC)c(NC(=O)CNC(=O)Cc2ccc(C(=O)c3ccc(C)cc3)n2C)c1  1470 mg/kg
64. Cc1occc(=O)c1O  1410 mg/kg
65. CCCCCCCCCCCCCOCCOCCOCCOCCOCCOCCO  1400 mg/kg
66. Cc1nn(C)c2c1NCc1ccccc1O2  1360 mg/kg
67. CCCCN1C(=O)c2ccc([N+](=O)[O-])cc2C1=O  1340 mg/kg
68. CCC(C)C(C(=O)OCC[N+](C)(CC)CC)c1ccccc1 (configuration not stated)  1260 mg/kg
69. CC(C)(Oc1ccc(Cl)cc1)C(=O)OCc1cccc(CO)n1  1250 mg/kg
70. C(=Nc1ccc(N=Cc2ccco2)cc1)c1ccco1  1220 mg/kg
71. CCC(C)C(C)(COC(N)=O)COC(N)=O (configuration not stated)  1160 mg/kg
72. OC(Cn1cncn1)(c1ccc(F)cc1)c1ccccc1F (configuration not stated)  1140 mg/kg
73. CCC(C)c1ccc(Oc2ccc(C)cc2CC(=O)O)c(Cl)c1 (configuration not stated)  1110 mg/kg
74. CCCCNC(=O)OCC(C)(CCC)COC(N)=O (configuration not stated)  1040 mg/kg
75. N#CCCCCC(=O)O  1000 mg/kg
76. COc1ccc(C(Oc2ccccc2)C2=NCCCN2)cc1F (configuration not stated)  1000 mg/kg
77. COC(=O)C1C2C=CC(C2)C1C(=O)OC (configuration not stated)  1000 mg/kg
78. Cc1c(Cl)c(=O)oc2cc(OP(=O)(OCCCl)OCCCl)ccc12  900 mg/kg
79. CCCCN(N=O)C(=O)OCC  900 mg/kg
80. COCCO[Si](CCCl)(OCCOC)OCCOC  878 mg/kg
81. COP(=O)(OC)OC  840 mg/kg
82. CCSCCOc1ccc([N+](=O)[O-])cc1  826 mg/kg
83. CC(COc1ccc(Cl)cc1Cl)C(=O)O (configuration not stated)  800 mg/kg
84. CC(O)COS(C)(=O)=S (configuration not stated)  794 mg/kg
85. Clc1ccc2ncoc2c1  791 mg/kg
86. O=C(OC1CCC(N2CCCCC2)CC1)c1ccccc1 (configuration not stated)  780 mg/kg
87. O=[N+]([O-])c1cccc(C(F)(F)F)c1  610 mg/kg
88. CC(C)(c1ccccc1)c1cc(CN2CCCCC2)c(O)c(CN2CCCCC2)c1  600 mg/kg
89. C#CCOP(=O)(OCC(C)C)c1ccccc1 (configuration not stated)  600 mg/kg
90. Cc1cc(CCN2CCN(c3cccc(Cl)c3)CC2)n[nH]1  570 mg/kg
91. CN(C)CCN(Cc1ccsc1)c1ccccn1  525 mg/kg
92. Clc1ccc([Si]23OCCN(CCO2)CCO3)cc1  520 mg/kg
93. OC(CCCN1CCCCC1)(c1ccccc1)c1ccccc1  515 mg/kg
94. CCCCCCCCCCCCCCCC[N+](C)(C)CC  500 mg/kg
95. O=C(O)CSc1nc(-c2ccccc2)ns1  500 mg/kg
96. CCCc1ccc(O)cc1  500 mg/kg
97. CCC(=O)c1ccc2c(c1)N(CC(C)N(C)C)c1ccccc1S2 (configuration not stated)  500 mg/kg
98. CN=NNc1ccc(I)cc1  499 mg/kg
99. c1ccc([C@H]2CN3CCSC3=N2)cc1  480 mg/kg
100. CN(C)CCN(Cc1ccccc1)c1ccccn1  469 mg/kg
101. Cc1cccc(C(=O)O)c1O  445 mg/kg
102. CN1CCC(=C2c3ccccc3CCc3sccc32)CC1  410 mg/kg
103. Cc1cccc(C)n1  400 mg/kg
104. S=C=Nc1ccc(Br)cc1  400 mg/kg
105. CCSC(=O)N(CC)CC  400 mg/kg
106. Nc1ccc(Cl)cc1[N+](=O)[O-]  400 mg/kg
107. CCSP(SCC)SCC  355 mg/kg
108. CCCCNC(=S)NCCCC  350 mg/kg
109. C=CCOc1ccccc1C(=O)N(CC)CC  325 mg/kg
110. O=C1CCc2cccc3c2N1CC3  321 mg/kg
111. O=NN1CCOCC1  282 mg/kg
112. CC1=C2C(=O)O[C@@H](c3ccoc3)[C@]2(C)CCC1  274 mg/kg
113. NC1CCCc2ccccc2C1 (configuration not stated)  270 mg/kg
114. CON(C(=O)CSP(=S)(OC)OC)C(C)C  260 mg/kg
115. CCCCCOC(CBr)c1ccc(C2CCCCC2)cc1 (configuration not stated)  250 mg/kg
116. C#CCCC#CC#CCCCCO  250 mg/kg
117. C#CCN(C)C1CCc2ccccc21 (configuration not stated)  250 mg/kg
118. CCCCN=C(NCCCC)C(OCC)c1ccc(Cl)cc1 (configuration not stated)  220 mg/kg
119. CC(=O)OC12CCC(C)=CCC13CCC2C(C)(C=CC=C(C)C(=O)O)OC3=O (configuration not stated)  219 mg/kg
120. CC(=O)O[C@H]1C[C@@H]2CC[C@@H]3[C@H](CC[C@@]4(C)[C@H]3C[C@H]([N+]3(C)CCCCC3)[C@@H]4OC(C)=O)[C@@]2(C)C[C@@H]1[N+]1(C)CCCCC1  202 mg/kg
121. ClCCO[SiH](OCCCl)OCCCl  190 mg/kg
122. CCOC(=O)CS  178 mg/kg
123. C1CCC(N2CCOCC2)CC1  178 mg/kg
124. C=CSC=C  170 mg/kg
125. Cc1ccc(=O)n(CSP(=S)(OC(C)C)OC(C)C)n1  155 mg/kg
126. NCC(CC(=O)O)c1ccc(Cl)cc1 (configuration not stated)  145 mg/kg
127. CCOCCc1ccc(OCCN=c2[nH]cnc(CC)c2Cl)c(C)c1C  115 mg/kg
128. CCOP(=S)(OCC)Oc1cc([N+](=O)[O-])c(Cl)cc1Cl  100 mg/kg
129. CC(Cc1ccccc1)NCCn1cnc2c1c(=O)n(C)c(=O)n2C (configuration not stated)  100 mg/kg
130. CN(C)N(C)N=O  95 mg/kg
131. Clc1cncc(N2CCNCC2)n1  79.6 mg/kg
132. COc1ccc2c3c1O[C@H]1C[C@@H](O)C=C[C@@]31CCN(C)C2  75 mg/kg
133. O=[N+]([O-])c1ccccc1C1OCC(CCl)O1 (configuration not stated)  65 mg/kg
134. CC(C(=O)O)c1ccc2c(c1)Cc1cccnc1O2 (configuration not stated)  59.5 mg/kg
135. CN(C)/N=N/c1ccccc1C(=N)O  56 mg/kg
136. CC(=O)Oc1c(C(C)(C)C)cc([N+](=O)[O-])c(C)c1[N+](=O)[O-]  42 mg/kg
137. C1OC1CSCC1CO1 (configuration not stated)  32 mg/kg
138. CSP(=O)(SC)SC  30 mg/kg
139. CC(C)OP(=S)(CCl)Sc1ccc(Br)cc1 (configuration not stated)  23 mg/kg
140. CCOP(=S)(OCC)SC(CBr)N1C(=O)c2ccccc2C1=O (configuration not stated)  18 mg/kg
141. N#Cc1ccc(F)cc1C#N  14 mg/kg
142. CCC1NC(=O)C2C(Cl)C(Cl)CN2C(=O)C(CO)NC(=O)CC(c2ccccc2)NC(=O)C(CO)NC1=O (configuration not stated)  5 mg/kg
143. CCOP(=S)(OC)Oc1ccc([N+](=O)[O-])cc1 (configuration not stated)  2.85 mg/kg
144. CCOP(=S)(OCC)SCS(=O)CC (configuration not stated)  2 mg/kg
145. c1ccc([Si]23OCCN(CCO2)CCO3)cc1  1.48 mg/kg

In the case of COC(=O)C1CCc2cc(C3CCCCC3)ccc21 (configuration not stated), the LD50 is given as 410 mg/kg and 254 mg/kg.
In the case of OCCN1CCN(CCCN2c3ccccc3Sc3ccc(Cl)cc32)CC1, the LD50 is given as 318 mg/kg and 210 mg/kg.
